Where no end group is shown, it is not given here.
Experiments:
[1] = test system: photoreceptor function, rd10/Serpinf1 null mice; experiment: Electroretinography (ERG), rd10/Serpinf1 null mice; assay type: in vivo, mouse; details: P21, daily eyedrops P15-P20
Description: (§1) At end point, eyes were enucleated and cross section of retinas from the treated animals were obtained. […] Third, electroretinography was performed in untreated and eyes treated with the 17mer[H105A] peptide eyedrops. Following an intense brief flash of light from darkness, the negative-going a-wave is generated by rod photocurrents and the positive-going b-wave by depolarizing bipolar-cell currents in combination with bipolar cell-dependent K^+ currents affecting Müller cells. […] Scotopic b wave was also measured for both rd10 and rd10/SerpinF1 null mice (FIG. 10C). The data from these different assays corroborate the PSVue® data and illustrate the efficacy of eyedrops of the 17mer[H105A] peptide for protecting the photoreceptors against malformation, death, and misfunction in vivo.

[2] = Penetration or bioavailability of labeled peptide in retina after eyedrop (fluorometry of retinal extract); assay type: in vivo, mouse (C57/B16J); details: eyedrops; P21 mice; measured with the Alexa488-labeled peptide
Description: To detect labeled peptide in vitro, the labeled Alexa488-17-mer[H105A] peptide was diluted in HBSS at the indicated concentrations (X-axis). A total of 30 μl of each was added to a well in 96-well plate in triplicates. RIPA buffer was added to one dissected mouse retina at 80 μl/retina. The suspension was sonicated for 30 sec at 4 °C followed by centrifugation at 4 °C. 10 min at […] (Eppendorf centrifuge) to separate the soluble retinal extract from the particulate material. The labeled peptide was diluted in retinal extract. A total of 30 μl of each was added to a well in 96-well plate. HBSS (FIG. 18A) or retinal extract (FIG. 18B) were used as a control at zero and different concentrations of 17mer[H105A]-488 as indicated in the x-axis. Fluorescence was determined using a fluorometer [BMG LabTech POLARstar OPTIMA] using wavelength at [Excitation 485-P, Emission 520-P]. Plots were obtained using GraphPad and non-linear fit were analyzed.
At 1, 3, 6 and 24 hours after administration, retinas were dissected, their proteins were extracted with RIPA (80 μl/retina) and clarified by sonication and centrifugation. A total of 30 μl of extracts were used to determine the fluorescence of the peptide with a fluorometer (FIG. 19).

[3] = test system: photoreceptor function, rd10 mice; experiment: Electroretinography (ERG), rd10 mice; assay type: in vivo, mouse
Description: as §1
At end point, eyes were enucleated and cross section of retinas from the treated animals were obtained. […] Electroretinography was also performed in untreated and eyes of rd10 mice treated with the […] eyedrops. […] The work was done with 3 animals, which may not give statistical significance.

[4] = P25, eyedrops every other day P15-P24

ERG amplitude of the a-wave [1]: improvement
time after eyedrop at which the peptide reached the retina [2]: 1 to 24 h
ERG amplitude of the a-wave ([3]; P21, daily eyedrops P15-P20): improvement
ERG amplitude of the a-wave [3, 4]: improvement
ERG amplitude of the b-wave [3, 4]: improvement
statistical difference in b-wave between treated and untreated ([3]; P25, eyedrops every other day, 3 animals): no statistically significant difference
Sequence: QRTESIIARALYYDLIS [17mer[H105A]]
